Measured values from patent US6100291A, “Pyrrolidine-indole compounds having 5-HT6 affinity” (Allelix Biopharmaceuticals Inc., priority 1998, dated 2000).
Like-named read-outs stand apart in the source and are kept apart here.

Key:
[1] = target: T1, human 5-HT6 receptor (Homo sapiens, UniProt P50406); experiment: Binding affinity for the 5-HT6 receptor (3H-LSD radioligand binding, membranes of cells expressing the 5-HT6 receptor); conditions: 60 minute incubation at 37° C.
T1 construct: expressed in transfected cells
T1 sequence (P50406 whole entry): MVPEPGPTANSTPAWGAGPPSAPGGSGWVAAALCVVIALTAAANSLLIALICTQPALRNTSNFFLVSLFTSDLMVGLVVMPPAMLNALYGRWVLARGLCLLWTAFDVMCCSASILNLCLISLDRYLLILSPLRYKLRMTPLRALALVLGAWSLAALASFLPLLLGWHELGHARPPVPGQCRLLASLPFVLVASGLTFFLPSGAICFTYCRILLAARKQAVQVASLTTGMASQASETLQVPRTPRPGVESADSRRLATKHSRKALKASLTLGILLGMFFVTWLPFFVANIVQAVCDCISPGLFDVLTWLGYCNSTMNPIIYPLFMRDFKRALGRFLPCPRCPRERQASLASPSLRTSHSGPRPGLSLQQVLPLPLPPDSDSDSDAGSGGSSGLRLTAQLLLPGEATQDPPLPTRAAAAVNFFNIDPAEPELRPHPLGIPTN
Experimental: All of the compounds of the invention were evaluated using cell types receptive specifically to the 5-HT6 receptor (for cloning and characterization of the human 5-HT6 receptor see Kohen, et al. J. Neurochemistry, 66, 1996: 47-56). […] After a 60 minute incubation at 37° C., the incubation was terminated by vacuum filtration. The filters were washed with buffer and the filters were counted for radioactivity using liquid scintillation spectrometry. The affinity of the test compound for the 5-HT6 receptor was determined by computer-assisted analysis of the data and determining the amount of the compound necessary to inhibit 50% of the binding of the radioligand to the receptor. Concentrations ranging from 10^-11 M to 10^-5 M of the test compound were evaluated.

[2] = target: T1, human 5-HT6 receptor; experiment: Effect on the cAMP response of human 5-HT6 receptors in stably transfected HEK293 cells (EIA); type: cell-based
Experimental: The antagonist (or agonist) property of compounds for human 5-HT6 receptors was determined by testing their effect on cAMP accumulation in stably transfected HEK293 cells.
Binding of an agonist to the human 5-HT6 receptor will lead to a increase in adenyl cyclase activity. A compound which is an agonist will show an increase in cAMP production and a compound which is an antagonist will block the agonist effect.
Cell Assay: Human 5-HT6 receptors were cloned and stably expressed in HEK293 cells. These cells were plated in 6 well plates in DMEM/F12 media with 10% fetal calf serum (FCS) and 500 μg/mL G418 and incubated at 37° C. in a CO2 incubator. The cells were allowed to grow to about 70% confluence before initiation of the experiment.
On the day of the experiment, the culture media was removed, and the cells were washed once with serum free medium (SFM). Two mL of SFM+IBMX media was added and incubated at 37° C. for 10 min. The media were removed and fresh SFM+IBMX media containing various compounds, and 1 μM serotonin (as antagonist) were added to the appropriate wells and incubated for 30 min. Following incubation, the media were removed and the cells were washed once with 1 mL of PBS (phosphate buffered saline). Each well was treated with 1 mL cold 95% ethanol and 5 mM EDTA (2:1) at 4° C. for 1 hour. The cells were then scraped and transferred into Eppendorf tubes. The tubes were centrifuged for 5 min at 4° C., and the supernatants were stored at 4° C. until assayed.
cAMP Measurement: cAMP content was determined by EIA (enzyme-immunoassay) using the Amersham Biotrak cAMP EIA kit (Amersham RPN 225). The procedure used is as described for the kit. Briefly, cAMP is determined by the competition between unlabeled cAMP and a fixed quantity of peroxidase-labelled cAMP for the binding sites on anti-cAMP antibody. The antibody is immobilized onto polystyrene microtitre wells precoated with a second antibody. […] The reaction is stopped by the addition of 100 μL 1.0 M sulphuric acid and the resultant color read by a microtitre plate spectrophotometer at 450 nM within 30 minutes. […]

[3] = target: human 5-HT7 receptor (Homo sapiens, UniProt P34969); experiment: Binding selectivity for 5-HT6 relative to the human 5-HT7 receptor; conditions: 5-HT6 vs human 5-HT7 receptor
Sequence of human 5-HT7 receptor (P34969 whole entry): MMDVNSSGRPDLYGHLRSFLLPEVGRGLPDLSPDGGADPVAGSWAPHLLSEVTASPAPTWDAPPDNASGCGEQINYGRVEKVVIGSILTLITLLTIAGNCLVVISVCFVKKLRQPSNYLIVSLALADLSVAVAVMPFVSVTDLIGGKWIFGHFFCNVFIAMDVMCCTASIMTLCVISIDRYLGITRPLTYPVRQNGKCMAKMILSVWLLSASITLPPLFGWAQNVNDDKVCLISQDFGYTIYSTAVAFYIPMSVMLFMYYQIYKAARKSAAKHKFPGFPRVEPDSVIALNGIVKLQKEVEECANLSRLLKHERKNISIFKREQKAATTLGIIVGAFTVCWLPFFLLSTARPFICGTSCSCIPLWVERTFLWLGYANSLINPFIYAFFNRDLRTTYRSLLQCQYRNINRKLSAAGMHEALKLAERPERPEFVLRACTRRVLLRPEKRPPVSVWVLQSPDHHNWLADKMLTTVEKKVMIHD

[4] = target: T2, human 5-HT2C receptor (Homo sapiens, UniProt P28335); experiment: Binding selectivity for 5-HT6 relative to the human 5-HT2C receptor; conditions: 5-HT6 vs human 5-HT2C receptor
T2 sequence (P28335 33-458): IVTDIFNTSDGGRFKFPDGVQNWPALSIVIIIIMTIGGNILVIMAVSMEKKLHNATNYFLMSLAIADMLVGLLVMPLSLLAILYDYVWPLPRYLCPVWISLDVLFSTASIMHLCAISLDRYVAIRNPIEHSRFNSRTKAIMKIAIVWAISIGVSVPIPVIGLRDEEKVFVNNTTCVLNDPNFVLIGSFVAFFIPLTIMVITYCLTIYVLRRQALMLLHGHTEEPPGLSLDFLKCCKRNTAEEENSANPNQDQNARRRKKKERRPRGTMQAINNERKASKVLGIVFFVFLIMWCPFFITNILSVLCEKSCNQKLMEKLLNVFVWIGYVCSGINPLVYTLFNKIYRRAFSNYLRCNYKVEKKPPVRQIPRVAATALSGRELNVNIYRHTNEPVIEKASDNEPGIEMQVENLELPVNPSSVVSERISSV

CN1CCC[C@@H]1Cc1cn(S(=O)(=O)c2ccccc2)c2ccc(OC3CCCCC3)cc12 [Example 4, (R)-5-Cyclohexyloxy-3-(1-methyl-2-pyrrolidinylmethyl)-1-phenylsulfonylindole]
Ki ([1]; Ki): ≤ 1 nM

CN1CCC[C@@H]1Cc1cn(S(=O)(=O)c2ccccc2)c2ccc(Cl)cc12 [Example 5d, (R)-5-Chloro-3-(1-methyl-2-pyrrolidinylmethyl)-1-phenylsulfonylindole]
EC50 [2]: 8.4 nM | Ki ([1]; Ki): ≤ 1 nM

CN1CCC[C@@H]1Cc1cn(C(=O)c2ccccc2)c2ccccc12 [Example 5g, (R)-1-Benzoyl-3-(1-methyl-2-pyrrolidinylmethyl)indole]
Ki ([1]; Ki): ≤ 10 nM

CN1CCC[C@@H]1Cc1cn(C(=O)c2ccccc2Cl)c2ccc(OC3CCCCC3)cc12 [Example 5j, (R)-1-(2-Chlorobenzoyl)-5-cyclohexyloxy-3-(1-methyl-2-pyrrolidinylmethyl)indole]
EC50 [2]: 64 nM

CN1CCC[C@@H]1Cc1cn(C(=O)c2c(Cl)cccc2Cl)c2ccc(OC3CCCCC3)cc12 [Example 5n, (R)-5-Cyclohexyloxy-1-(2,6-dichlorobenzoyl)-3-(1-methyl-2-pyrrolidinylmethyl)indole]
greater affinity for human 5-HT6 receptor relative to human 5-HT7 [3]: ≥ 36 fold | greater affinity for human 5-HT6 receptor relative to human 5-HT2C [4]: ≥ 36 fold

CN1CCC[C@@H]1Cc1cn(C(=O)c2ccccc2)c2ccc(Cl)cc12 [Example 5p, (R)-1-Benzoyl-5-chloro-3-(1-methyl-2-pyrrolidinylmethyl)indole]
Ki ([1]; Ki): ≤ 1 nM

CN1CCC[C@@H]1Cc1cn(C(=O)c2ccc(F)cc2)c2ccc(Cl)cc12 [Example 5r, (R)-5-Chloro-1-(4-fluorobenzoyl)-3-(1-methyl-2-pyrrolidinylmethyl)indole]
EC50 [2]: 6 nM | greater affinity for human 5-HT6 receptor relative to human 5-HT7 [3]: ≥ 36 fold | greater affinity for human 5-HT6 receptor relative to human 5-HT2C [4]: ≥ 36 fold

CN1CCC[C@@H]1Cc1cn(C(=O)c2ccccc2)c2ccc(OC3CCCCC3)cc12 [Example 7a, (R)-5-Cyclohexyloxy-3-(1-methyl-2-pyrrolidinylmethyl)-1-benzoylindole]
Ki ([1]; Ki): ≤ 10 nM

Cc1ccc(S(=O)(=O)n2cc(C[C@H]3CCCN3C)c3cc(F)ccc32)cc1 [Example 7c, (R)-5-Fluoro-1-(4-methylphenylsulphonyl)-3-(1-methyl-2-pyrrolidinylmethyl)-indole]
Ki ([1]; Ki): ≤ 1 nM

CN1CCC[C@@H]1Cc1cn(C(=O)c2ccccc2)c2ccc(Br)cc12 [Example 7d, (R)-1-Benzoyl-5-bromo-3-(1-methyl-2-pyrrolidinylmethyl) indole]
Ki ([1]; Ki): ≤ 1 nM

CN1CCC[C@@H]1Cc1cn(S(=O)(=O)c2ccccc2)c2ccc(OCc3ccccc3)cc12 [Example 7e, (R)-5-Benzyloxyindole-3-(1-methyl-2-pyrrolidinylmethyl)-1-phenylsulfonylindole]
Ki ([1]; read-out: Ki): ≤ 1 nM

CN1CCC[C@@H]1Cc1cn(S(=O)(=O)c2ccccc2)c2ccc(O)cc12 [Example 10, (R)-1-Phenylsulfonyl-5-hydroxy-3-(1-methyl-2-pyrrolidinylmethyl)indole]
Ki ([1]; Ki): ≤ 10 nM
